Read-outs that look alike come from different tables or passages of the source.
How the values were obtained:
[1] = test system: T-lymphocytes and natural killer cells; conditions: humans, 200 μg of selenium a day for eight weeks; cited from earlier work
[2] = cited from earlier work
humans [3] = conditions: cited from earlier work
humans [4] = conditions: cited from earlier work; for Outcome of inadvertent intravenous infusion: person
[5] = cited from earlier work; remark: listed apart in the source
[6] = Study of 52 patients receiving parenteral nutrition: zinc level in serum and whole blood; format: in vivo, humans
Protocol: In a study of 52 patients receiving parenteral nutrition, whereby the patients had haemorrhages, polytrauma/trauma and tumours, in the Vogtland-Klinikum Plauen GmbH, the trace element status of the patients was determined throughout the course of the therapy on the basis of routine medication and routine supplementation.
The goal was to establish whether the routinely administered trace element substitution led to a satisfactory supply of trace elements. For this purpose, the serum and whole blood levels of the trace elements chromium, iron, fluorine, iodine, copper, manganese, molybdenum, selenium and zinc were determined daily, for a minimum of 3 and a maximum of 18 days.
Throughout the above-mentioned observation period, the patients received the normal routine supplementation with the preparations Inzolen HK, Inzolen® sine NaCL, Selenase® and Unizink®, at various times and in various dosages. The trace elements cobalt, copper, manganese, selenium and zinc were administered by means of these preparations, in addition to the macro elements chloride, magnesium, potassium and sodium.
Corresponding to the previous routine, the Inzolen® administrations were made dependent on the daily determined serum potassium level, with the normal range being targeted. Zinc and selenium administration took place on the basis of experience in certain illness situations. The above-mentioned determination of the further macro element and trace element levels was only intended for retrospective observation of the trace element status, and was not included in the daily decision process for any supplementation.
The following reference ranges were the basis for the evaluation:
The second step was to establish what percent of the patients' trace element levels were below, within and above the reference range throughout the entire observation period (3-18 days).
Moreover, the behaviour curves of the trace element levels in the serum and whole blood of each patient were evaluated, whereby performance of further treatments/therapies (Op, CT, accompanying medication, etc.) was taken into consideration.

[7] = test system: various experimental animals; conditions: cited from earlier work
rabbits = conditions: cited from earlier work
guinea pigs = conditions: peroral administration; cited from earlier work
[8] = oral administration of 1 mg of sodium selenite; cited from earlier work
rats = conditions: intravenous administration; cited from earlier work
mice = conditions: cited from earlier work
[9] = 20 healthy young men, 160 mg zinc/d for 5 weeks
[10] = Ø, entire observation period (3-18 days)

[Se] [Selenium]
Selenium substitution required (long-term, continuous) (concluded from the results): 1000 µg/day | Tendency towards infection (higher versus reduced selenium level): reduced tendency towards infection | Selenium level in the serum (human, in vivo): rose up into the reference range | Selenium whole blood levels (human, in vivo): rose only to just below the reference range | Formation of the interleukin-2 receptor, lymphocyte proliferation, cell-destroying effect of T-lymphocytes and natural killer cells [1]: increases | Portion of selenium taken in with food that leaves the organism renally ([2]; in vivo): 50-70% | Recommended maximum single oral dose (humans [3]; in vivo, po): at most 50 μg of selenium/kg BW | Dosage seen as harmless (humans [3]; in vivo): up to 500 μg of selenium a day | Maximum safe ingestion over a longer time frame (WHO 1996) (humans [3]; in vivo): 400 μg of selenium a day | Recommended maximum dose for long-term use (humans [3]; in vivo): at most 5 μg of selenium/kg BW | Selenium content of whole blood from which symptoms can appear (humans [3]; in vivo): ≥ 1000 μg/l of whole blood | Selenium ingestion in areas with chronic selenium poisonings (humans [3]; in vivo): 3-7 mg of selenium a day

[Zn] [Zinc]
Effect of repeated administration (humans [4]; 150 mg of zinc a day over 2 years): copper deficiency | Outcome of inadvertent intravenous infusion (humans [4]; 1.5 g zinc over 60 hours): ended fatally | HDL cholesterol level (humans [4]; [9]): significantly reduced | Total cholesterol, triglycerides and LDL cholesterol (humans [4]; [9]): normal levels | Effect on the blood lipid levels (humans [4]; healthy young women, 100 mg daily for 8 weeks): no effect | Toxicity (humans [4]; toxic range not starting until quantities in the grams): low toxicity | Concentration in the cerebral spinal fluid relative to plasma concentration ([5]; humans): a tenth | Portion excreted through the faeces ([5]; in vivo): 90% | Portion resorbed from the nourishment ([5]; physiological conditions, roughly): 20-30% | Zinc in serum, patients Above reference range ([6]; Day 1): 4% | Zinc in serum, patients Below reference range ([6]; Day 1): 76% | Zinc in serum, patients Within reference range ([6]; Day 1): 20% | Zinc in whole blood, patients Above reference range ([6]; Day 1): 10% | Zinc in whole blood, patients Below reference range ([6]; Day 1): 6% | Zinc in whole blood, patients Within reference range ([6]; Day 1): 84% | Zinc in serum, patients Above reference range ([6]; Day 2): 2% | Zinc in serum, patients Below reference range ([6]; Day 2): 85% | Zinc in serum, patients Within reference range ([6]; Day 2): 13% | Zinc in whole blood, patients Above reference range ([6]; Day 2): 8% | Zinc in whole blood, patients Below reference range ([6]; Day 2): 18% | Zinc in whole blood, patients Within reference range ([6]; Day 2): 75% | Zinc in serum, patients Above reference range ([6]; Day 3): 0% | Zinc in serum, patients Below reference range ([6]; Day 3): 78% | Zinc in serum, patients Within reference range ([6]; Day 3): 22% | Zinc in whole blood, patients Above reference range ([6]; Day 3): 8% | Zinc in whole blood, patients Below reference range ([6]; Day 3): 12% | Zinc in whole blood, patients Within reference range ([6]; Day 3): 80% | Zinc in serum, patients Above reference range ([6]; Day 4): 0% | Zinc in serum, patients Below reference range ([6]; Day 4): 86% | Zinc in serum, patients Within reference range ([6]; Day 4): 14% | Zinc in whole blood, patients Above reference range ([6]; Day 4): 5% | Zinc in whole blood, patients Below reference range ([6]; Day 4): 14% | Zinc in whole blood, patients Within reference range ([6]; Day 4): 81% | Zinc in serum, patients Above reference range ([6]; Day 5): 3% | Zinc in serum, patients Below reference range ([6]; Day 5): 80% | Zinc in serum, patients Within reference range ([6]; Day 5): 17% | Zinc in whole blood, patients Above reference range ([6]; Day 5): 6% | Zinc in whole blood, patients Below reference range ([6]; Day 5): 17% | Zinc in whole blood, patients Within reference range ([6]; Day 5): 77% | Zinc in serum, patients Above reference range ([6]; Day 6): 4% | Zinc in serum, patients Below reference range ([6]; Day 6): 68% | Zinc in serum, patients Within reference range ([6]; Day 6): 29% | Zinc in whole blood, patients Above reference range ([6]; Day 6): 4% | Zinc in whole blood, patients Below reference range ([6]; Day 6): 7% | Zinc in whole blood, patients Within reference range ([6]; Day 6): 89% | Zinc in serum, patients Above reference range ([6]; Day 7): 0% | Zinc in serum, patients Below reference range ([6]; Day 7): 63% | Zinc in serum, patients Within reference range ([6]; Day 7): 38% | Zinc in whole blood, patients Above reference range ([6]; Day 7): 8% | Zinc in whole blood, patients Below reference range ([6]; Day 7): 8% | Zinc in whole blood, patients Within reference range ([6]; Day 7): 83% | Zinc in serum, patients Above reference range ([6]; Day 8): 0% | Zinc in serum, patients Below reference range ([6]; Day 8): 50% | Zinc in serum, patients Within reference range ([6]; Day 8): 50% | Zinc in whole blood, patients Above reference range ([6]; Day 8): 8% | Zinc in whole blood, patients Below reference range ([6]; Day 8): 4% | Zinc in whole blood, patients Within reference range ([6]; Day 8): 88% | Zinc in serum, patients Above reference range ([6]; Day 9): 4% | Zinc in serum, patients Below reference range ([6]; Day 9): 43% | Zinc in serum, patients Within reference range ([6]; Day 9): 52% | Zinc in whole blood, patients Above reference range ([6]; Day 9): 9% | Zinc in whole blood, patients Below reference range ([6]; Day 9): 0% | Zinc in whole blood, patients Within reference range ([6]; Day 9): 91% | Zinc in serum, patients Above reference range ([6]; Day 10): 5% | Zinc in serum, patients Below reference range ([6]; Day 10): 33% | Zinc in serum, patients Within reference range ([6]; Day 10): 62% | Zinc in whole blood, patients Above reference range ([6]; Day 10): 5% | Zinc in whole blood, patients Below reference range ([6]; Day 10): 0% | Zinc in whole blood, patients Within reference range ([6]; Day 10): 95% | Zinc in serum, patients Above reference range ([6]; Day 11): 16% | Zinc in serum, patients Below reference range ([6]; Day 11): 16% | Zinc in serum, patients Within reference range ([6]; Day 11): 68% | Zinc in whole blood, patients Above reference range ([6]; Day 11): 11% | Zinc in whole blood, patients Below reference range ([6]; Day 11): 0% | Zinc in whole blood, patients Within reference range ([6]; Day 11): 89% | Zinc in serum, patients Above reference range ([6]; Day 12): 7% | Zinc in serum, patients Below reference range ([6]; Day 12): 20% | Zinc in serum, patients Within reference range ([6]; Day 12): 73% | Zinc in whole blood, patients Above reference range ([6]; Day 12): 7% | Zinc in whole blood, patients Below reference range ([6]; Day 12): 7% | Zinc in whole blood, patients Within reference range ([6]; Day 12): 87% | Zinc in serum, patients Above reference range ([6]; Day 13): 14% | Zinc in serum, patients Below reference range ([6]; Day 13): 7% | Zinc in serum, patients Within reference range ([6]; Day 13): 79% | Zinc in whole blood, patients Above reference range ([6]; Day 13): 7% | Zinc in whole blood, patients Below reference range ([6]; Day 13): 7% | Zinc in whole blood, patients Within reference range ([6]; Day 13): 86% | Zinc in serum, patients Above reference range ([6]; Day 14): 0% | Zinc in serum, patients Below reference range ([6]; Day 14): 8% | Zinc in serum, patients Within reference range ([6]; Day 14): 92% | Zinc in whole blood, patients Above reference range ([6]; Day 14): 0% | Zinc in whole blood, patients Below reference range ([6]; Day 14): 0% | Zinc in whole blood, patients Within reference range ([6]; Day 14): 100% | Zinc in serum, patients Above reference range ([6]; Day 15): 0% | Zinc in serum, patients Below reference range ([6]; Day 15): 8% | Zinc in serum, patients Within reference range ([6]; Day 15): 92% | Zinc in whole blood, patients Above reference range ([6]; Day 15): 8% | Zinc in whole blood, patients Below reference range ([6]; Day 15): 0% | Zinc in whole blood, patients Within reference range ([6]; Day 15): 92% | Zinc in serum, patients Above reference range ([6]; Day 16): 0% | Zinc in serum, patients Below reference range ([6]; Day 16): 9% | Zinc in serum, patients Within reference range ([6]; Day 16): 91% | Zinc in whole blood, patients Above reference range ([6]; Day 16): 9% | Zinc in whole blood, patients Below reference range ([6]; Day 16): 0% | Zinc in whole blood, patients Within reference range ([6]; Day 16): 91% | Zinc in serum, patients Above reference range ([6]; Day 17): 10% | Zinc in serum, patients Below reference range ([6]; Day 17): 10% | Zinc in serum, patients Within reference range ([6]; Day 17): 80% | Zinc in whole blood, patients Above reference range ([6]; Day 17): 10% | Zinc in whole blood, patients Below reference range ([6]; Day 17): 0% | Zinc in whole blood, patients Within reference range ([6]; Day 17): 90% | Zinc in serum, patients Above reference range ([6]; Day 18): 10% | Zinc in serum, patients Below reference range ([6]; Day 18): 10% | Zinc in serum, patients Within reference range ([6]; Day 18): 80% | Zinc in whole blood, patients Above reference range ([6]; Day 18): 20% | Zinc in whole blood, patients Below reference range ([6]; Day 18): 0% | Zinc in whole blood, patients Within reference range ([6]; Day 18): 80% | Zinc level in the serum ([6]; patients with normal whole blood zinc receiving zinc, even high administration): scarcely influenced | Zinc in serum, patients Above reference range [6, 10]: 14% | Zinc in serum, patients Below reference range [6, 10]: 38% | Zinc in serum, patients Within reference range [6, 10]: 49% | Zinc in whole blood, patients Above reference range [6, 10]: 7% | Zinc in whole blood, patients Below reference range [6, 10]: 5% | Zinc in whole blood, patients Within reference range [6, 10]: 88%

O=S(=O)([O-])[O-].[Zn+2] [ZnSO4]
Dose considered deadly for adults (humans [4]; adults): 5 g | Dose resulting in vomiting (humans [4]; in vivo): 1 to 2 g | Outcome of inadvertent intravenous infusion (humans [4]; total 7.4 g zinc within 60 hours): death

O=[74Se]([O-])[O-].[Na+].[Na+] [[^74Se] sodium selenite]
Dose excreted ([2]; intravenous 82 μg of selenium, first 24 hours): 18% | Absorbed dose excreted through the urine ([2]; peroral administration, first 24 hours): 12%

O=[75Se]([O-])[O-].[Na+].[Na+] [[^75Se] sodium selenite]
Dose excreted ([2]; intravenous, first 24 hours): 12% | Additional portion of dose eliminated in second phase ([2]; intravenous): 40% | Biological half-life of second phase ([2]; intravenous): 20 days | Half-life of the third phase ([2]; intravenous): 115 days | Absorbed dose excreted through the urine ([2]; oral 10 μg, first two weeks): 14-20% | Half-life of total body retention, 1st phase ([2]; oral 10 μg): 0.7 to 1.2 days | Half-life of total body retention, 2nd phase ([2]; oral 10 μg): 7 to 11 days | Half-life of total body retention, 3rd phase ([2]; oral 10 μg): 96 to 144 days

[Zn] [elementary zinc]
Symptoms after ingestion (humans [4]; 12 g/d for 2 days, child): recklessness, lethargy and dysgraphia

O=[Se](O)O [selenous acid]
Outcome of acute selenium poisoning (humans [3]; two children, 10-15 ml weapon-cleaning agent with approx. 1.8% selenous acid, roughly 110 mg selenium): died

O=[Se](O)O [sodium selenite]
Acute toxicity [7]: 1-5 mg of selenium per kg BW | Indications of selenium poisoning (humans [3]; four persons, 2 mg selenium a day for 20-40 days): did not result in any indications of selenium poisoning | Chronic toxicity (humans [3]; in vivo): 3-7 mg of selenium/day | Whole blood concentration at which first symptoms of poisoning manifest (humans [3]; in vivo): 1.05 mg of selenium/l whole blood | Dosage seen as harmless (humans [3]; long-term use (longer than three months)): up to 550 μg of selenium a day | Symptoms of selenium poisoning (humans [3]; peroral 50 μg selenium per kg bodyweight over one year, patients with neuronal ceroid lipofuscinosis): no symptoms of selenium poisoning were observed | Symptoms of chronic poisoning (humans [3]; person, 2 mg sodium selenite (900 μg selenium) daily for more than two years): fingernails were thickened and brittle | Symptoms of poisoning (humans [3]; person, approx. 27 mg selenium a day for approx. two months): suffered from lassitude, nausea, vomiting, depression, bad breath, hair loss and nails that fell off | LD50 (rabbits; intravenous administration): 0.9 mg/kg BW | LD50 (rabbits; peroral administration): 2.25 mg/kg BW | LD50 (guinea pigs): 2.3 mg/kg BW | Absorption, average portion [8]: 62±14% | LD50 (rats): 5.7 mg/kg BW | LD50 (mice; intravenous administration): 2.2 mg of selenium/kg BW | LD50 (mice; peroral administration): 3.2-3.5 mg/kg BW

From US9277761B2, “Nutrition trace element composition” (priority 2003, dated 2016)
